Results taken from patent US20220401418A1, “TREATMENT OF MALARIA USING HISTONE DEACETYLASE (HDAC) INHIBITORS” (FOUNDATION FOR NEGLECTED DISEASE RESEARCH, priority 2019, published 2022).
Where two headings read alike, the source gives them in different places.

Legend:
[1] = system: Hu HDAC (HeLa nuclear extract); experiment: HDAC activity screening, fluorescence assay with HeLa nuclear extract; type: biochemical, human; conditions: HeLa nuclear extract as enzyme source
Method: HDAC inhibition screening was performed using a fluorescence-based assay with a fluorescent substrate (BocLys (Ac)-AMC Substrate). HeLa nuclear extract was used as the enzyme source.
The assay was performed in 96-well black microplates, and the total volume of the assay was set at 100 μl. […] The enzyme mixture was prepared by adding […] of the diluted enzyme (HeLa nuclear extract) to […] of HDAC buffer. From the enzyme mixture, 40 μl was taken and mixed with 10 μl of test compound (final concentration from 0.01 to 10 μM) or vehicle (control). The final mixture (50 μl) was added to each well which was then pre-incubated at 37° C. for 10 min. The HDAC reaction was started by adding 50 μl of HDAC substrate: Boc-Lys (Ac)-AMC (Anaspec, Inc Fremont, Calif., USA). […] The release of AMC was monitored by measuring the fluorescence at an excitation wavelength of 360 nm and an emission wavelength of 460 nm. Buffer and substrate alone served as blank.

Pf-HDAC1 = biological target: T1, Pf-HDAC1 (Plasmodium falciparum, UniProt Q7K6A1); experiment: PfHDAC1 fluorescent activity assay; type: biochemical
T1 construct: His-tag; FLAG-tag; purchased BPS Bioscience
T1 sequence (Q7K6A1 1-449): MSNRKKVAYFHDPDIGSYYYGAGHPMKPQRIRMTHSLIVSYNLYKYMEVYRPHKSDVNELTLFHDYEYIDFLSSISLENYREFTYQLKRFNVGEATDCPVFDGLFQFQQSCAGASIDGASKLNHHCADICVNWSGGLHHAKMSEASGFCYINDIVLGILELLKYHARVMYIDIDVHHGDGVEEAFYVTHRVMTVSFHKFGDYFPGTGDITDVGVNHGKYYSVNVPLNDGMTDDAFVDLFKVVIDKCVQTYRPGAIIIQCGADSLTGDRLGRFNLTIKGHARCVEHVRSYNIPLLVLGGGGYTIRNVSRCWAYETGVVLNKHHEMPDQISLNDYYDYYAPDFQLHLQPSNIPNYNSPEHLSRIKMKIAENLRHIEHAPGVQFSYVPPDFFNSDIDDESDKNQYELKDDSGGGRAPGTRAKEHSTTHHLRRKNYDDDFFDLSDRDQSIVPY
Method: The fluorescence developed was measured with excitation at 350-380 nm and emission at 440-460 nm.

[2] = system: Plasmodium falciparum 3D7; experiment: Plasmodium falciparum asexual blood-stage (ABS) assay; type: cell-based
Method: Plasmodium falciparum 3[…]. falciparum asexual blood-stage (ABS) assay, for which the cells were resuscitated from the stabilate and maintained at 5% haematocrit. Red blood cells obtained from the hospital were used to maintain the culture at 1% parasitaemia while screening. Plasmodium falciparum: 3D7 cells were used as a target strain for the assay. Mefloquine (Sigma-Aldrich) was used as a standard inhibitor. At day 1, […] of 10 mM mefloquine was added to columns 12 and 24 of the sterile 384-well black, clear-bottom, cell culture assay plates followed by compound curves which were added using Echo. The P. falciparum 3D7 cells were counted and 20 ml of culture was prepared at 5% haematocrit, 0.3% parasitaemia (as one batch, i.e., 12 plates, prepare 260 ml, to allow for WellMate prime volume) for each plate. From this, 50 μl of culture was added to all wells on all plates using WellMate with small bore tubing on full (S-1) speed. […] The plates were read on Victor plate reader using '384sybrgreen' protocol (excitation 485 nm, emission 528 nm) after which the plate contents were aspirated into 5% Virkon, and disposed of after autoclaving. Percentage inhibition for each test compound was calculated using the following equation: % Inhibition=100-(TEST COMPOUND-BLANK)/(NO INHIBITION-BLANK)*100)

Plasma Protein = experiment: Plasma protein binding, human; type: in vitro ADME; conditions: summary statement on Table 3, across species
Excerpt: (§1) Method Reference for Table 3: Chung T D Y et al. In Vitro and In Vivo Assessment of ADME and PK Properties during lead selection and lead optimisation-guidelines, benchmarks and rules of thumb. In: Assay Guidance Manual. 2015.

[3] = type: in vitro ADME; conditions: mouse, microsomes, 2 h, 10 μM
Excerpt: as §1

[4] = Microsomal stability, RLM; type: in vitro ADME; conditions: Test Conc. 10 μM
Excerpt: as §1

[5] = Microsomal stability, HLM; type: in vitro ADME
Excerpt: as §1

Plasma stability, mouse = type: in vitro ADME
Excerpt: as §1

Plasma stability, rat = type: in vitro ADME
Excerpt: as §1

Plasma stability, dog = type: in vitro ADME
Excerpt: as §1

Plasma stability, human = type: in vitro ADME
Excerpt: as §1

CYP 1A2 = biological target: T2, CYP 1A2 (Homo sapiens, UniProt P05177); experiment: Cyp inhibition CYP 1A2; type: in vitro ADME; conditions: summary statement on Table 3, all CYP isoforms tested
T2 sequence (P05177 1-516): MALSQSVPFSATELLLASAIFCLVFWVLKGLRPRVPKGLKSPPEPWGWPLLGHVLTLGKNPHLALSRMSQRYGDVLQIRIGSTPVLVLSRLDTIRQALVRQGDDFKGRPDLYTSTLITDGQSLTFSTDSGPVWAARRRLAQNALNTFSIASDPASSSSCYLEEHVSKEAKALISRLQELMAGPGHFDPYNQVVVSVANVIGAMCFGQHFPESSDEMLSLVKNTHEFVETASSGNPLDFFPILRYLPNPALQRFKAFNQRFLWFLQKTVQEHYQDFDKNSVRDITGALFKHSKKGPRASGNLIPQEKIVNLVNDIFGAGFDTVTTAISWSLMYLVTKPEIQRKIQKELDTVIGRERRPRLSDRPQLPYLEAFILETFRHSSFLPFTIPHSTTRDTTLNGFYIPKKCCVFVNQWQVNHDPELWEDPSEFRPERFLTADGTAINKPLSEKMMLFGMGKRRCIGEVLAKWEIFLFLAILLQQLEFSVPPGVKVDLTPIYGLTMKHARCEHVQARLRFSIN
Excerpt: as §1

CYP 2D6 = CYP 2D6 (Homo sapiens, UniProt P10635); experiment: Cyp inhibition CYP 2D6; type: in vitro ADME
Excerpt: as §1

CYP 3A4 = CYP 3A4 (Homo sapiens, UniProt P08684); experiment: Cyp inhibition CYP 3A4; type: in vitro ADME
Excerpt: as §1

HepG2 = experiment: Cytotoxicity HepG2; type: cell-based
Excerpt: as §1

HERG = HERG (Homo sapiens, UniProt Q12809); experiment: HERG binding; conditions: summary statement on Table 3
Excerpt: as §1

P. falciparum = experiment: In vivo efficacy in humanized SCID mouse model of P. falciparum malaria; conditions: for reduction in parasitaemia: intra-peritoneal, humanized SCID mice
Excerpt: In vivo efficacy assessed in humanized SCID mouse model of P. falciparum malaria.

HERG, sequence (Q12809 whole entry): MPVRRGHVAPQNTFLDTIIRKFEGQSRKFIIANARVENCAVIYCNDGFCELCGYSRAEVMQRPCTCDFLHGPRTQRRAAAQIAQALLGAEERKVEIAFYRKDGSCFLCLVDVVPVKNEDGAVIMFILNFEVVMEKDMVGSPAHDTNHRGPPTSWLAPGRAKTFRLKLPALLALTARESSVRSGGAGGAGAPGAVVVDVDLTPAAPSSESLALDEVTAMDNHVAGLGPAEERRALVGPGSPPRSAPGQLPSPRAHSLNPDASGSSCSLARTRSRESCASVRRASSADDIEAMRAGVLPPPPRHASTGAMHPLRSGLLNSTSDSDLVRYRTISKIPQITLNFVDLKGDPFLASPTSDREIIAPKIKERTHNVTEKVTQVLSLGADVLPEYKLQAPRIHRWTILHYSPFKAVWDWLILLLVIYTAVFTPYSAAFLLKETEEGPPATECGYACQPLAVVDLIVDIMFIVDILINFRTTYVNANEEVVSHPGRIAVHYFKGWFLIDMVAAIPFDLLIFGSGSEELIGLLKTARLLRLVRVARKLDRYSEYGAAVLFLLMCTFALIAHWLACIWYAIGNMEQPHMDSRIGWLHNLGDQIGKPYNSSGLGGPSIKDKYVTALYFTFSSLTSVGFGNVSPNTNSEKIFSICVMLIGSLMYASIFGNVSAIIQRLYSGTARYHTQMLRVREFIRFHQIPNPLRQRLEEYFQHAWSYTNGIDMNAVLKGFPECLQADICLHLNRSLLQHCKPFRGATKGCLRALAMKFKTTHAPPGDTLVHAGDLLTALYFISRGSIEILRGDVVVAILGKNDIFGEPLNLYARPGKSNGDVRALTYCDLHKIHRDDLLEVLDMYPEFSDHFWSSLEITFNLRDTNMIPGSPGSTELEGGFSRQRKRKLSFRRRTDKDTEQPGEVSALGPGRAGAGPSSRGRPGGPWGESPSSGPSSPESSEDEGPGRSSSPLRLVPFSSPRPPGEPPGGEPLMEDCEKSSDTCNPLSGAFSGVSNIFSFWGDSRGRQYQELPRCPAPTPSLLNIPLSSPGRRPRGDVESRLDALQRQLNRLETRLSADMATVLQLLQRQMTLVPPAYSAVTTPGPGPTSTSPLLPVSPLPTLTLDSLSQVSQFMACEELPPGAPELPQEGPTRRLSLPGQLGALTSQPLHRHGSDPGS
CYP 2D6, sequence (P10635 whole entry, species assumed): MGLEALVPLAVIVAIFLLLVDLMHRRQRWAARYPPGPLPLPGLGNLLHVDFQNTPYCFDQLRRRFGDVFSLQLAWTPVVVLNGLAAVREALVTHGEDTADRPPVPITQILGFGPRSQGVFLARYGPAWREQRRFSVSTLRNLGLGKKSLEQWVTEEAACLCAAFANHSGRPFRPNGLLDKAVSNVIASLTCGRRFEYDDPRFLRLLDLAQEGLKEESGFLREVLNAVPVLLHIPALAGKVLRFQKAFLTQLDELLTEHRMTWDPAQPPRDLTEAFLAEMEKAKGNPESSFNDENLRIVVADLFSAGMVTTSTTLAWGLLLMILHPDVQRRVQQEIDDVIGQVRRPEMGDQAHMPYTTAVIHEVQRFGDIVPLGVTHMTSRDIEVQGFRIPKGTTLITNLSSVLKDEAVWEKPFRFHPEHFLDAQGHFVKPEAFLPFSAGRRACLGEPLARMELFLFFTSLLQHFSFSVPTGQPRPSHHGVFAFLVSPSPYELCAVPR
CYP 3A4, sequence (P08684 whole entry, species assumed): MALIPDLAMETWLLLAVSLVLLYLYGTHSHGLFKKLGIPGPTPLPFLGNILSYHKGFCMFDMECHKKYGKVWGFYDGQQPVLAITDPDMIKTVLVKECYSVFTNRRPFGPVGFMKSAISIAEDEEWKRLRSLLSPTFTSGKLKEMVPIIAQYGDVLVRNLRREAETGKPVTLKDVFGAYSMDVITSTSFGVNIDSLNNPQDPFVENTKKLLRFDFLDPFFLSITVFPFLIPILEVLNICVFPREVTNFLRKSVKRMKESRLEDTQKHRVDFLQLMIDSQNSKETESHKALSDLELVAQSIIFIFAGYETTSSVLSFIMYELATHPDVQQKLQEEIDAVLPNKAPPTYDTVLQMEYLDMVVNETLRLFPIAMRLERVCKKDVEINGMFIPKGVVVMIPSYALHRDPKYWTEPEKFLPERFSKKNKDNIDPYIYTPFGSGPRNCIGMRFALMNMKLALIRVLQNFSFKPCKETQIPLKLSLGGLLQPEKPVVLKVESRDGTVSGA

**Q.** Which IC50 [1] does the source give for O=C(NO)c1ccc(Cn2cc(-c3ccc(CN4CCCC4)cc3)nn2)cc1 [FNDR-20123, N-hydroxy-4-((4-(4-(pyrrolidin-1-ylmethyl)phenyl)-1H-1,2,3-triazol-1-yl)methyl)benzamide] here?
**A.** Its IC50 is about 3 nM.

**Q.** What about the IC50 ([1]; listed as 20123) of the same molecule?
**A.** The IC50 was 3 nM.

**Q.** And the IC50 (Pf-HDAC1)?
**A.** The IC50 was 31 nM.

**Q.** And the IC50 ([2]; Plasmodium falciparum, P. falciparum 3D7, 72 h, read-out: Anti-Malarial Activity Asexual Blood Stage IC50)?
**A.** Its IC50 is 41 nM.

**Q.** And the “anti-malarial activity in library screen” value ([2]; screen of proprietary compound library)?
**A.** Its value is “potent anti-malarial activity”.

**Q.** What about the “plasma protein binding” value (Plasma Protein) of the same molecule?
**A.** The value was “low”.

**Q.** What about the “Microsomal Stability (% remaining at 120 min)” value [3] of the same molecule?
**A.** The value was 76.15%.

**Q.** And the “Microsomal Stability (% remaining at 120 min)” value [4]?
**A.** The value was 74.56%.

**Q.** And the “Microsomal Stability (% remaining at 120 min)” value ([5]; HLM, Test Conc. 10 μM, 120 min)?
**A.** Its value is 85.31%.

**Q.** And the “liver microsomal stability” value ([5]; summary statement on Table 3, all microsome species)?
**A.** The value was “good”.

**Q.** What about the “Plasma Stability (% remaining at 240 min)” value (Plasma stability, mouse) of the same molecule?
**A.** The value was 89.16%.

**Q.** And the “Plasma Stability (% remaining at 240 min)” value (Plasma stability, rat)?
**A.** Its value is 88.90%.

**Q.** What about the “Plasma Stability (% remaining at 240 min)” value (Plasma stability, dog) of the same molecule?
**A.** The value was 97.72%.

**Q.** And the “Plasma Stability (% remaining at 240 min)” value (Plasma stability, human)?
**A.** Its value is 98.94%.

**Q.** And the “inhibition of the CYP isoforms tested” value (CYP 1A2)?
**A.** The value was “no inhibition”.

**Q.** And the IC50 (CYP 2D6)?
**A.** Its IC50 is 28000 nM.

**Q.** And the IC50 (CYP 3A4)?
**A.** Its IC50 is 27000 nM.

**Q.** What about the “Cytotoxicity HepG2 (% @ 100 μM)” value (HepG2) of the same molecule?
**A.** The value was 12.6%.

**Q.** What about the “hERG liability” value (HERG) of the same molecule?
**A.** The value was “no hERG liability”.

**Q.** What about the reduction in parasitaemia (P. falciparum; 50 mg/kg) of the same molecule?
**A.** Its reduction in parasitaemia is 98%.

**Q.** What about the reduction in parasitaemia (P. falciparum; 100 mg/kg) of the same molecule?
**A.** The reduction in parasitaemia was 99%.

**Q.** And the reduction in parasitemia (P. falciparum; oral, 50 mg/kg body weight for 4 days, humanized SCID mouse)?
**A.** The reduction in parasitemia was 67%.
